Assays:
caspase 3 and caspase 8 = assay: Caspase dependence of growth inhibition and caspase expression; type: cell-based
Excerpt: Thus, the compound may induce apoptosis in a caspase-independent pathway.

human leukemic cell U937 [1] = assay: MTT cell survival assay, leukemic cells U937; type: cell-based
Method: Examples of the present invention adopted anti-tumor drugs screening model of National Cancer Institute (NCI) to examine inhibitory effect of the compound on cancer cells. The compound was added into culture medium containing leukemic cells U937 (a human monoblastoid leukemic cell line) to test for tumor cell survival. Cell survival rate is determined by well known MTT assay, and U937, a human myeloid leukemic cell line obtained from American Type Culture Collection (ATCC), is belonged to one of human acute leukemic cell lines and is classified as monoblasts during hematopoietic differentiation.
MTT assay is a commonly used method for analysis of percent of viable cells, wherein MTT (3-[4,5-dimethylthiazol-2-yl]2,5-diphenyltetrazolium bromide) is a yellow color dye that can be absorbed by living cells and be converted by mitochondria succinate tetrazolium reductase to water insoluble purple-blue formazan. Therefore, the amount of formazan formation can be used as an assessment tool to determine the survival rate of cells.
The human leukemia cell line U937 was cultivated in RPMI 1640 medium containing fetal calf serum for 24 hours and maintained in the exponential growth condition. The proliferating cells were treated with the compound in the concentration of 0 (the control group), 1.25, 2.5, 5 or 10 μg/ml at 37° C. under 5% CO2 for 24-72 hours, respectively. Then MTT was added in a concentration of 500 μg/ml into each wells in the dark and incubated for 4 hours, followed by the addition of 500 μl of isopropanol to stop the reaction. The plates were read on an ELISA reader at wavelength of 570 nm to determine the cell survival rates. The results were reported as the average±(plus/minus) SEM (Standard Error in the Mean). For statistical analysis, the t-test was used to compare the difference between each experiment result. p<0.05 was considered statistically significant.

[2] = test system: human pancreatic cancer cell line BxPC-3; assay: MTT cell survival assay, pancreatic cancer cells; type: cell-based
Method: (§1) The test adopted the cell survival analysis (i.e., the MTT assay as described above). The purified compound was added into the culture media with human pancreatic cancer cell line BxPC-3 to test for tumor cell survival. This survival assay was carried out with the abovementioned MTT assay, wherein the pancreatic cancer cell line BxPc-3 was purchased from American Type Culture Collection (ATCC), the cell line originated from the epithelium of human pancreatic adenocarcinomas.
The human pancreatic cancer cell line BxPc-3 was cultivated in DMEM media containing 100 IU/ml penicillin (Invitrogen, Carlsbad, Calif.), 100 μg/ml streptomycin (Invitrogen, Carlsbad, Calif.), 2 mM glutamin (Invitrogen, Carlsbad, Calif.), and 10% fetal calf serum (Atlanta Biologicals, Norcross, Ga.). The proliferated cells were treated with the compound in the concentration of 0 (the control group), 5 and 10 μg/ml (the experimental group), respectively. The cells were incubated at 37° C. in a 5% CO2 incubator for 24-72 hours. 500 μg/ml of MTT was added into each well in the dark and incubated for 4 hours, followed by the addition of 500 μl of isopropanol to stop the reaction. The plates were read on an ELISA reader at wavelength of 570 nm to determine the cell survival rates. The results were reported as the average±(plus/minus) SEM (Standard Error in the Mean). […]

[3] = test system: human esophageal cancer cell line CE-81T/VGH; assay: MTT cell survival assay, esophageal cancer cells; type: cell-based; conditions: 5 μg/ml, 72 hours
Method: The purified compound was added into the culture media with human esophageal cancer cell line CE-81T/VGH to test for tumor cell survival. This survival assay was carried out with the abovementioned MTT assay, wherein the CE-81T/VGH esophageal cancer cell line was obtained from Taipei Veteran General Hospital, the cell line originated from the epithelium of human esophageal cancer cells.
(§2) The human esophageal cancer cell line CE-81T/VGH was cultivated in DMEM media containing 100 IU/ml penicillin (Invitrogen, Carlsbad, Calif.), 100 μg/ml streptomycin (Invitrogen, Carlsbad, Calif.), 2 mM glutamin (Invitrogen, Carlsbad, Calif.), and 10% fetal calf serum (Atlanta Biologicals, Norcross, Ga.). The proliferated cells were treated with the compound in the concentration of 0 (the control group) and 5 μg/ml (the experimental group), respectively. The cells were incubated at 37° C. in a 5% CO2 incubator for 24-72 hours. 500 μg/ml of MTT was added into each well in the dark and incubated for 4 hours, followed by the addition of 500 μl of isopropanol to stop the reaction. The plates were read on an ELISA reader at wavelength of 570 nm to determine the survival rates.

[4] = test system: human hepatoma cell line HA22T/VGH; assay: MTT cell survival assay, hepatoma cells; type: cell-based; conditions: 5 μg/ml, 72 hours
Method: The test adopted the cell survival analysis (i.e., the MTT assay as described above). The purified compound was added into the culture media with human hepatoma cell line HA22T/VGH to test for tumor cell survival. This survival assay was carried out with the abovementioned MTT assay, wherein the hepatoma cell line HA22T/VGH was obtained from Taipei Veteran General Hospital, the cell line originated from the human hepatoma.
as §2, with “hepatoma” for “esophageal cancer”, “HA22T/VGH” for “CE-81T/VGH”

[5] = test system: human cervical adenocarcinoma cell line HeLa; assay: MTT cell survival assay, cervical adenocarcinoma cells; type: cell-based; conditions: 5 μg/ml, 72 hours
Method: as §1, with “cervical adenocarcinoma” for “pancreatic cancer”, “HeLa” for “BxPC-3”, “HeLa” for “BxPc-3”, “cervical adenocarcinoma.” for “pancreatic adenocarcinomas.”
as §2, with “cervical adenocarcinoma” for “esophageal cancer”, “HeLa” for “CE-81T/VGH”

[6] = test system: human ovarian cancer cell line SKOV-3; assay: MTT cell survival assay, ovarian cancer cells; type: cell-based; conditions: 5 μg/ml, 72 hours
Method: The test adopted the cell survival analysis (i.e. the MTT assay as described above). The purified compound was added into the culture media of human ovarian cancer cell line SKOV-3 to test for tumor cell survival. This survival assay was carried out with the abovementioned MTT assay, wherein the ovarian cancer cell line SKOV-3 was purchased from American Type Culture Collection (ATCC), the cell line originated from the epithelium of human ovarian cancer.
as §2, with “ovarian” for “esophageal”, “SKOV-3” for “CE-81T/VGH”

[7] = test system: human leukemic cell line U937; assay: Cell cycle analysis by flow cytometry; type: cell-based; conditions: 2.5 μg/ml, 48 hours
Method: Flow cytometer was used to analyze the effect of the compound on cell cycle of human leukemic cells.
The compound in concentration of 2.5 μg/ml was used to treat human leukemic cell line U937, and cells without addition of compound were served as the control group. The treated cells after 48 hours of treatment were fixed at 4° C. with 70% ethanol for 1 hour and stained for 30 minutes with propidium iodide solution (0.5 mg/ml of propidium iodide; 0.1 mg/ml of RNAse) contained in a CycleTEST PLUS DNA reagent kit (Becton Dickinson, Lincoln Park, N.J.). DNA content measurement on the collected 10^4 cells was performed on the FACS Calibur flow cytometer (Becton Dickinson), and the cell cycle changes were analyzed using a ModFit software (Becton Dickinson).

tumor cells = assay: DNA gel electrophoresis, inter-nucleosomal DNA cleavage; type: cell-based; conditions: 5 μg/ml; 24 hours; 1.5% agarose gel
Method: Lane 1, molecular marker; Lane 2, control group; Lane 3, experimental group (treated with 5 μg/ml of the compound for 24 hours).
In addition to the morphological changes described above, cells may show some biochemical changes during cell apoptosis, including chromatin condensation, formation of apoptotic body due to cell fragmentation, and inter-nucleosomal cleavage of DNA that leading to formation of DNA ladder in DNA electrophoresis. To confirm the relationship of inhibition activity between the compound and the stage of cell apoptosis, the experiment adopted DNA electrophoresis to examine inter-nucleosomal cleavage of DNA into DNA ladder at late stage of cell apoptosis.
Total DNAs were extracted and analyzed by 1.5% agarose gel electrophoresis in TBE buffer (5 mM TBE buffer containing 1 μM EDTA, pH 8.0). The gel was stained with ethidium bromide and visualized under UV.

human leukemic cell U937 [8] = assay: Mitochondria transmembrane potential, DiOC6(3) flow cytometry; type: cell-based; conditions: 5 μg/ml, 16 hours
Method: Human leukemic cell U937 was treated with the compound (5 μg/ml) for 16 hours. The same cells treated with anti-tumor agent camptothecin (4 μM) for 16 hours were used as positive control group, while untreated cells were used as control group. The cells were then washed with PBS solution, followed by addition of 40 nM 3,3′-dihexyloxacarbocyanine(DiOC6(3); Molecular Probes, Eugene, Oreg.) into culture medium at 37° C. in the dark and incubated for 15 minutes. The results were analyzed immediately using flow cytometry, wherein the excitation wavelength was set at 488 nm and emission wavelength set at 530 nm to detect fluorescence density and as representative of mitochondria transmembrane potential change.

[9] = test system: human normal monocytes isolated from peripheral blood mononuclelar cells; assay: Viability of human normal monocytes; type: cell-based; conditions: for effect on normal monocytes: normal human peripheral blood monocytes
Method: FIG. 4 is a morphological assessment of human normal peripheral blood monocytes treated by the compound. Liu's stain method was used for morphological observation. (A) Control group and (B) Experimental group (treated with 5 μg/ml of the compound for 1 day).

[10] = test system: U937, BxPC-3, CE-81T/VGH, HA22T/VGH and HeLa tumor cell lines; assay: MTT assay, summary over the inhibited tumor cell lines; type: cell-based, human; conditions: range over U937, BxPC-3, CE-81T/VGH

SMILES | block of induced growth inhibition by caspase 3 and pan-caspase inhibitors (caspase 3 and caspase 8) | inhibitory rate (human leukemic cell U937 [1]; U937, 1.25, 2.5, 5 and 10 μg/ml, all groups, third day) | inhibitory rate (human leukemic cell U937 [1]; U937, 5 and 10 μg/ml groups, third day) | highest inhibitory rate (human leukemic cell U937 [1]; U937, highest rate, 5 and 10 μg/ml groups, third day) | IC50 (human leukemic cell U937 [1]; U937 cells, MTT) | inhibition rate ([2]; 5 μg/ml (summary)) | highest inhibitory rate ([2]; 5 and 10 μg/ml groups, third day, highest rate) | inhibitory rate [3] | inhibitory rate [4] | inhibitory rate [5] | growth inhibition [6] | cell cycle distribution [7] | genomic DNA fragmentation (DNA ladder) (tumor cells) | mitochondria transmembrane potential change (human leukemic cell U937 [8]) | viability inhibition ([9]; human normal monocytes) | effect on normal monocytes [9] | effect on normal monocytes ([9]; listed as The compound) | inhibition rate on tumor cell lines [10]
CC[C@@]1(O)C(=O)OCc2c1cc1n(c2=O)Cc2cc3ccccc3nc2-1 [camptothecin, reference compound] | could block |  |  |  |  |  |  |  |  |  |  |  |  |  |  |  |  | 
CC(C)=CCC[C@@H](CO)[C@H]1C[C@H](O)[C@@]2(C)C3=C(CC[C@]12C)[C@@]1(C)CC[C@H](O)C(C)(C)[C@@H]1CC3 [the compound, (22R)-5α-lanosta-8,24-dien-3β,15α,21-triol] |  | more than 60% | more than 95% | 99.8% | about 2 μg/ml | 49.1% | 48.5% | 61.4% | 90.3% | 56.8% | could not inhibit the growth | hypoploidy, G2/M phase arrest, and polyploidy | induced the genomic DNA into oligonucleosomal fragmentations | did not be exhibited significantly reduction of transmembrane potential | < 10% | without toxicity to normal monocytes | no effect | 48.5˜99.8%

Reference: patent US8546366B2, “Method for inhibition of tumor cell growth using (22R)-5α-lanosta-8,24-dien-3β,15α,21-triol” (Mackay Memorial Hospital, priority 2011, dated 2013)
